From patent US20060185030A1, “Cytokinin response regulators and uses thereof” (priority 2001, published 2006)

What was measured:
[1] = test system: ARR6 promoter; assay: Arabidopsis mesophyll protoplast transient expression assay, ARR6-LUC reporter; assay type: cell-based; settings: for activity of ARR6-LUC (hormone specificity): 100 nM t-zeatin, 1 μM IAA or 100 μM ABA, 3 hours of incubation; for induction of the reporter gene ARR6-LUC by cytokinin analogues: 100 nM, FIG. 1C; for activation of ARR6-LUC by over-expressed effector: absence of exogenous cytokinin
Experimental: To elucidate the regulatory circuitry in cytokinin signal transduction, a leaf cell assay based on cytokinin inducible transcription in Arabidopsis mesophyll protoplasts was developed. The 2.4 kb promoter of an Arabidopsis cytokinin primary response gene (SEQ ID NO.: 1), encoding the response regulator 6 (ARR6), was fused to the firefly luciferase (LUC) reporter. In FIG. 1A, transfected protoplasts were incubated with or without 100 nM t-zeatin, 1 μM indole-3-acetic acid (IAA), or 100 μM ABA. After 3 hours of incubation, LUC and GUS activities were determined.
(§1) Arabidopsis Bensheim (BE) protoplasts were isolated and transfected as described with some modifications (Kovtun et al., Proc. Natl. Acad. Sci. USA 97: 2940-5 2000). […] For instance, in the experiments shown in FIG. 1A, protoplasts (4×10^4) were transfected with 2 μg of UBQ10-GUS (internal control) and 20 μg of ARR6-LUC, GH3-LUC, or RD29ALUC plasmid DNA. Transfected protoplasts were incubated at 1×10^4 per mil with/without 1-100 nM of t-zeatin for 3-6 hours under the light at 23° C. The UBQ10-GUS construct was used as an internal control to normalize the variations of each transfection in cell numbers, transformation efficiency and cell viability. […] GFP fluorescence was observed by either Nikon TE200 fluorescent microscopy or Leica TCSNT confocal microscopy.

[2] = test system: RD29A promoter; assay: Arabidopsis mesophyll protoplast transient expression assay, RD29A-LUC reporter; assay type: cell-based; settings: 100 μM ABA, 3 hours
[3] = test system: Arabidopsis seedlings; assay: Seedling cytokinin response assay; assay type: in vivo; settings: medium with 0.15 mg/L IAA alone or with 0.15 mg/L IAA and 5 mg/L 2IP, 14 days
Description: In tissue culture, induction of cell proliferation and subsequent shoot formation require cytokinin. To determine whether the same cytokinin signalling pathway is responsible for transcription regulation, cell proliferation, shoot meristem initiation, and leaf formation, we developed a seedling cytokinin response assay. In FIGS. 4A and 4B, Arabidopsis seedlings were transformed with Agrobacteria carrying GFP, CKI1, CKI1 (H405Q), ARR2, and ARR6 constructs in the mini-binary vector pCB302 (Xiang et al., Plant Mol. Biol. 40: 711-7, 1999). Seedlings transformed with the Agrobacteria carrying the binary vector pCB301 […] a Bar selection marker were used as a transformation control (vector). The transformed seedlings were selected with glufosinate ammonium (10 μg/ml) and maintained on medium with auxin (IAA) only (FIG. 4A, +IAA, −2IP) or with auxin and cytokinin (FIG. 4B, +IAA, +2IP) for 14 days. The transformed tissues were mostly derived from the shoot apical meristem. […] Both CKI1 and ARR2 promoted extensive cell proliferation and shoot formation even without exogenous cytokinin. The experiments were repeated three times with similar results. […] The results of this cytokinin seedling assay are consistent with those from protoplast transient expression analyses based on transcription. […]

[4] = test system: GH3 promoter; assay: Arabidopsis mesophyll protoplast transient expression assay, GH3-LUC reporter; assay type: cell-based; settings: 1 μM IAA, 3 hours
[5] = test system: AHP5-GFP; settings: 100 nM t-zeatin, 30 minutes
Experimental: (§2) To gain further in vivo support for the involvement of AHPs in cytokinin signalling, the action of AHP1-GFP in transfected protoplast in the absence or presence of cytokinin was followed using fluorescence microscopy. Specifically, protoplasts were transfected with AHP1-GFP, AHP2-GFP, or AHP5-GFP and incubated for 3 hours to allow sufficient expression.
as §1

[6] = test system: AHP1-GFP; settings: 100 nM t-zeatin, 30 minutes
Experimental: as §2, §1

[7] = test system: CKI1-GFP; assay: GFP fusion expression and localization in transfected protoplasts (confocal microscopy); assay type: cell-based, Arabidopsis; settings: tunicamycin 1 μg/ml, 12 hours
Experimental: To gain insight into where the cytokinin signalling is perceived, the sub-cellular localization of CKI1 was examined using the CKI1-GFP fusion. We first confirmed that CKI1-GFP acted similarly as CKI1-HA in the protoplast assay based on ARR6-LUC activation (FIG. 1D). […] Specifically, protoplasts were transfected with CKI1-GFP or various GFP marker plasmid DNA. Tunicamycin (1 μg/ml) treatment was for 12 hours. The transfected protoplasts were analyzed with a confocal microscope. The subcellular GFP markers are “CAT-GFP” for the cytosol, “ER-GFP” for the endoplasmic reticulum, and “N-GFP” (HSP-GFP) for the nucleus. Since the N-terminus of CKI1 is replete with putative glycosylation sites, the effect of a glycosylation inhibitor, tunicamycin, in CKI1-GFP expression, localization or function was examined.

CC1=CC(=O)CC(C)(C)[C@@]1(O)/C=C/C(C)=C\C(=O)O [ABA, abscisic acid]
activity of ARR6-LUC (hormone specificity) [1]: not by other plant hormones | RD29A promoter induction [2]: solely induced

c1ccc(CNc2ncnc3nc[nH]c23)cc1 [BA, benzyladenine]
induction of the reporter gene ARR6-LUC by cytokinin analogues [1]: induced

O=C(O)Cc1c[nH]c2ccccc12 [IAA, indole-3-acetic acid]
callus / shoot formation of GFP control transformed seedlings [3]: green callus formation | activity of ARR6-LUC (hormone specificity) [1]: not by other plant hormones | GH3 promoter activation [4]: only activated

C/C(=C\CNc1ncnc2nc[nH]c12)CO [t-zeatin, trans-zeatin]
AHP5-GFP cytokinin-dependent translocation [5]: not | AHP1-GFP localization after cytokinin treatment [6]: translocated into the nucleus | activity of ARR6-LUC (hormone specificity) [1]: specifically induced | induction of the reporter gene ARR6-LUC by cytokinin analogues [1]: induced

tunicamycin
expression of CKI1-GFP [7]: completely abolished | expression of other GFP constructs ([7]; CAT-GFP, ER-GFP, N-GFP markers): did not affect

B1: ARR10: Arabidopsis B-type response regulator (SEQ ID NO.: 9), over-expressed from effector plasmid (protein, listed as Arabidopsis thaliana)
chain: MTMEQEIEVLDQFPVGMRVLAVDDDQTCLRILQTLLQRCQYHVTTTNQAQTALELLRENKNKFDLVISDVDMPDMDGFKLLELVGLEMDLPVIMLSAHSDPKYVMKGVKHGACDYLLKPVRIEELKNIWQHVVRKSKLKKNKSNVSNGSGNCDKANRKRKEQYEEEEEEERGNDNDDPTAQKKPRVLWTHELHNKFLAAVDHLGVERAVPKKILDLMNVDKLTRENVASHLQKFRVALKKVSDDAIQQANRAAIDSHFMQMNSQKGLGGFYHHHRGIPVGSGQFHGGTTMMRHYSSNRNLGRLNSLGAGMFQPVSSSFPRNHNDGGNILQGLPLEELQINNNINRAFPSFTSQQNSPMVAPSNLLLLEGNPQSSSLPSNPGFSPHFEISKRLEHWSNAALSTNIPQSDVHSKPDTLEWNAFCDSASPLVNPNLDTNPASLCRNTGFGSTNAAQTDFFYPLQMNQQPANNSGPVTEAQLFRSSNPNEGLLMGQQKLQSGLMASDAGSLDDIVNSLMTQEQSQSDFSEGDWDLDGLAHSEHAYEKLHFPFSLSA
activation of ARR6-LUC by over-expressed effector [1]: about 10 fold | further enhancement by cytokinin of effector's effect on ARR6-LUC activity ([1]; with cytokinin, relative to effector alone): 10-20 fold

B2: ARR1: Arabidopsis B-type response regulator (SEQ ID NO.: 2), over-expressed from effector plasmid (protein, listed as Arabidopsis thaliana)
chain: MALSLLRKNKHGFDIVISDVHMPDMDGFKLLEHVGLEMDLPVIMMSADDSKSVVLKGVTHGAVDYLIKPVRMEALKNIWQHVVRKRRSEWSVPEHSGSIEETGERQQQQHRGGGGGAAVSGGEDAVDDNSSSVNEGNNWRSSSRKRKDEEGEEQGDDKDEDASNLKKPRVVWSVELHQQFVAAVNQLGVEKAVPKKILELMNVPGLTRENVASHLQKYRIYLRRLGGVSQHQGNLNNSFMTGQDASFGPLSTLNGFDLQALAVTGQLPAQSLAQLQAAGLGRPAMVSKSGLPVSSIVDERSIFSFDNTKTRFGEGLGHHGQQPQQQPQMNLLHGVPTGLQQQLPMGNRMSIQQQIAAVRAGNSVQNNGMLMPLAGQQSLPRGPPPMLTSSQSSIRQPMLSNRISERSGFSGRNNIPESSRVLPTSYTNLTTQHSSSSMPYNNFQPELPVNSFPLASAPGISVPVRKATSYQEEVNSSEAGFTTPSYDMFTTRQNDWDLRNIGIAFDSHQDSESAAFSASEAYSSSSMSRHNTTVAATEHGRNHQQPPSGMVQHHQVYADGNGGSVRVKSERVATDTATMAFHEQYSNQEDLMSALLKQEGIAPVDGEFDFDAYSIDNIPV
activation of ARR6-LUC by over-expressed effector [1]: about 40 fold

B3: ARR2: Arabidopsis B-type response regulator (SEQ ID NO.: 3), over-expressed from effector plasmid (protein, listed as Arabidopsis thaliana)
chain: MVNPGHGRGPDSGTAAGGSNSDPFPANLRVLVVDDDPTCLMILERMLMTCLYREQRAHCLCFGRTKNGFDIVISDVHMPDMDGFKLLEHVGLEMDLPVINLNVLKPLVIVMSADDSKSVVLKGVTHGAVDYLIKPVRIEALKNIWQHVVRKKRNEWNVSEHSGGSIEDTGGDRDRQQQHREDADNNSSSVNEGNGRSSRKRKEEEVDDQGDDKEDSSSLKKPRVVWSVELHQQFVAAVNQLGVDSELKTCLLMHLCVSIGNIVEFQKYRIYLRRLGGVSQHQGNMNHSFMTGQDQSFGPLSSLNGFDLQSLAVTGQLPPQSLAQLQAAGLGRPTLAKPGMSVSPLVDQRSIFNFENPKIRFGDGHGQTMNNGNLLHGVPTGSHMRLRPGQNVQSSGMMLPVADQLPRGGPSMLPSLGQQPILSSSVSRRSDLTGALAVRNSIPETNSRVLPTTHSVFNNFPADLPRSSFPLASAPGISVPVSVSYQEEVNSSDAKGGSSAATAGFGNPSYDIFNDFPQHQQHNKNISNKLNDWDLRNMGLVFSSNQDAATATATAAFSTSEAYSSSSTQRKRRETDATVVGEHGQNLQSPSRNLYHLNHVFMDGGSVRVKSERVAETVTCPPANTLFHEQYNQEDLMSAFLKQV
activation of ARR6-LUC by over-expressed effector [1]: ~400 fold | activation of ARR6-LUC by over-expressed effector with cytokinin treatment ([1]; with cytokinin (100 nM t-zeatin, 3 hours)): over 1000 fold
